Publication PMC2795317 (Journal of medicinal chemistry, 2009)

Test system: MDA-MB-231 breast cancer cells
Experiment: Western blot analysis of caspase-8/-3 processing and PARP cleavage
Format: cell-based
Settings: 24 hours; for Concentration inducing processing of caspase-3 and -8 and cleavage of PARP: concentrations as low as

Row | Structure (SMILES) | Processing of caspase-8 and -3 and cleavage of PARP | Concentration inducing processing of caspase-3 and -8 and cleavage of PARP [nM]
1 | CN[C@@H](C)C(=O)N[C@H]1CCCC[C@H]2CC[C@@H](C(=O)NC(c3ccccc3)c3ccccc3)N2C1=O [Compound 7] | effectively induce processing of caspase-8 and -3 and cleavage of PARP in a dose-dependent manner | –
2 | CN[C@@H](C)C(=O)N[C@H]1CCCC[C@H]2CC[C@@H](C(=O)N[C@@H]3CCCc4ccccc43)N2C1=O [Compound 8] | effectively induce processing of caspase-8 and -3 and cleavage of PARP in a dose-dependent manner | ≤ 10
3 | CN[C@@H](C)C(=O)N[C@H]1CCCC[C@H]2[C@@H](Cc3ccccc3)C[C@@H](C(=O)N[C@@H]3CCCc4ccccc43)N2C1=O [Compound 10] | effectively induce processing of caspase-8 and -3 and cleavage of PARP in a dose-dependent manner | ≤ 10
